The values below come from ChEMBL document CHEMBL4732153, “Phenyl 4-(2-oxopyrrolidin-1-yl)benzenesulfonates and phenyl 4-(2-oxopyrrolidin-1-yl)benzenesulfonamides as new antimicrotubule agents targeting the colchicine-binding site” (Eur J Med Chem, 2021).

By IC50 is commonly meant the concentration at which inhibition is half-maximal.

The test system of series [1] is M21. The experiment in a line: Antiproliferative activity against human M21 cells assessed as reduction in cell viability measured after 48 hrs by sulforhodamine B assay. Type of series: functional, cell-based. Conditions: M21, 48 h.
In series [2] the test system is M21. The experiment in a line: Cell cycle arrest in human M21 cells assessed as accumulation at G0/G1 phase at 2 to 5 times IC50 measured after 24 hrs by DAPI staining based flow cytometry (reference value: 65.5%). It is filed as functional.
Series [3] relates to HT-1080. Briefly: Antiproliferative activity against human HT-1080 cells assessed as reduction in cell viability measured after 48 hrs by sulforhodamine B assay. Type of series: functional, cell-based. The note with it: HT-1080, 48 h.
The subject of series [4] is M21. Briefly: Cell cycle arrest in human M21 cells assessed as accumulation at S phase at 2 to 5 times IC50 measured after 24 hrs by DAPI staining based flow cytometry (reference value: 16.1%). It is filed as functional. For orientation: In flow cytometry, cells or beads pass a laser one at a time.
Series [5] is filed under the species Sus scrofa. Briefly: Inhibition of porcine brain tubulin polymerization at 3 uM measured after 60 mins by fluorescence assay.
The subject of series [6] is HT-29. The experiment in a line: Antiproliferative activity against human HT-29 cells assessed as reduction in cell viability measured after 48 hrs by sulforhodamine B assay. It is filed as functional, cell-based. Conditions: HT-29, 48 h.
The target in series [7] is Tubulin beta (Homo sapiens) (UniProt P68371+Q9H4B7+Q13509+P04350+Q3ZCM7+P07437+Q13885+Q9BVA1+Q9BUF5+A6NNZ2). The experiment in a line: Inhibition of EBI binding to colchicine-binding site of beta-tubulin in human M21 cells at 100 to 1000 times IC50 preincubated for 2 hrs followed by EBI addition and measured after 1.5 hrs by Western blot analysis. It is filed as cell-based. The note with it: time 3.5 hrs. A general note: In western blotting, separated proteins are transferred to a membrane and probed.

Series [8] deals with T1, Tubulin (Homo sapiens) (UniProt P68371+Q9H4B7+P0DPH7+P68366+Q13509+Q71U36+P04350+Q3ZCM7+P07437+P68363+Q9BQE3+Q6PEY2+Q13885+Q9BVA1+Q9BUF5). Briefly: Disruption of microtubule polymerization in human M21 cells assessed as induction of mitotic abnormalities at 5 times IC50 measured after 24 hrs by DAPI staining based immunofluorescence microscopic analysis. It is filed as cell-based.

Series [9] has as its system MCF7. Briefly: Antiproliferative activity against human MCF7 cells assessed as reduction in cell viability measured after 48 hrs by sulforhodamine B assay. It is filed as functional, cell-based. The note with it: MCF7, 48 h.
Series [10] in a line: Toxicity in chick embryo assessed as death at 10 ug, iv incubated for 7 days relative to control. Type of series: organism-based. The note with it: in vivo, at 10 µg, time 7 day, read-out: Activity.
Series [11] relates to M21. The experiment in a line: Cell cycle arrest in human M21 cells assessed as accumulation at SubG1 phase at 2 to 5 times IC50 measured after 24 hrs by DAPI staining based flow cytometry (reference value: 5%). It is filed as functional.
Series [12] in a line: Solubility of compound in DMSO at 3 uM. Type of series: physicochemical.
The target of series [13] is T1, Tubulin (Homo sapiens). Briefly: Disruption of microtubule polymerization in human M21 cells at 5 times IC50 measured after 24 hrs by DAPI staining based immunofluorescence microscopic analysis. It is filed as cell-based.
For series [14], the system named is M21. The experiment in a line: Cell cycle arrest in human M21 cells assessed as accumulation at G2/M phase at 2 to 5 times IC50 measured after 24 hrs by DAPI staining based flow cytometry (reference value: 13.4%). Type of series: functional.

Activity calls are given as the source filed them. The rule behind the calls is not given here.

`O=C1CCCN1c1ccc(S(=O)(=O)Nc2cc(Br)cc(Br)c2)cc1`: the IC50 in series [1] was 280 nM; in series [3] it was 590 nM; in [6], 390 nM; in [9], 520 nM. Besides, the Activity in series [2] was found to be 8.3%; in series [4], 6.3%; in series [11], 4.2%; in series [14], 81.2%. Besides, the inhibition result in series [5] is “Active”. Further, the “Inhibition of EBI binding (active/inactive)” value (“Inhibition … (active/inactive)” below) in series [7] is “Active”. Also, the result in [8] and in series [13] was Active. Further, in series [10], the mortality at 168 h stood at 25%. The solubility entry in series [12] is “Soluble”.

On to `COc1cc(NS(=O)(=O)c2ccc(N3CCCC3=O)cc2)cc(OC)c1`, for which the IC50 in series [1] is 390 nM; in series [3], 990 nM; in series [6] it was 1300 nM; in series [9] it was 690 nM. Further, the Activity in series [2] worked out at 43.1%; in [4], 9.8%; in series [11] it was 4.9%; in series [14], 42.2%.

`O=C1CCCN1c1ccc(S(=O)(=O)Nc2cccc(Br)c2)cc1`: the IC50 in series [1] was 950 nM; in series [3], 1300 nM; in series [6], 590 nM; in series [9] it was 830 nM.

On to `O=C1CCCN1c1ccc(S(=O)(=O)Nc2cccc(Cl)c2)cc1`, for which the IC50 was 770 nM in series [1], 680 nM in series [3], 680 nM in series [6] and 560 nM in series [9]. The Activity in [2] turned out to be 13.7%; in [4], 7.9%; in series [11], 10.6%; in series [14], 67.8%.

With `COc1ccc(NS(=O)(=O)c2ccc(N3CCCC3=O)cc2)cc1`, the IC50 stood at 7500 nM in series [1], 8500 nM in series [3], 4800 nM in series [6] and 4600 nM in series [9].

Turning to `O=C1CCCN1c1ccc(S(=O)(=O)Oc2cccc(Cl)c2)cc1`, the IC50 was determined as 110 nM in series [1], 180 nM in [3], 120 nM in [6] and 140 nM in series [9].

With `COc1ccc(OS(=O)(=O)c2ccc(N3CCCC3=O)cc2)cc1OC`, the IC50 in series [1] stood at 650 nM; in series [3], 590 nM; in [6] it was 690 nM; in series [9] it was 290 nM.

For the molecule `O=C1CCCN1c1ccc(S(=O)(=O)Nc2cccc(F)c2)cc1`, the IC50 in series [1] was 2300 nM; in series [3] it was 840 nM; in [6], 5400 nM; in series [9], 680 nM.

In the case of `COc1cc(OS(=O)(=O)c2ccc(N3CCCC3=O)cc2)cc(OC)c1OC`, the IC50 is 13 nM in series [1], 11 nM in series [3], 16 nM in series [6] and 17 nM in [9]. In addition, the Activity in [2] is 8.3%; in [4] it was 6.1%; in series [11], 3.8%; in [14] it was 81.8%. Also, in [7], the “Inhibition … (active/inactive)” value was “Active”. Moreover, the result in series [8] and in series [13] was Active.

Regarding `COc1ccc(OS(=O)(=O)c2ccc(N3CCCC3=O)cc2)cc1`, the IC50 in series [1] was 7500 nM; in [3], 8500 nM; in [6], 4800 nM; in [9], 4600 nM.

Take `O=C1CCCN1c1ccc(S(=O)(=O)Oc2ccc(-c3ccccc3)cc2)cc1`: the IC50 in series [1] was 2300 nM; in [3], 2600 nM; in [6] it was 2900 nM; in series [9], 1700 nM.

Take `O=C1CCCN1c1ccc(S(=O)(=O)Nc2ccccc2)cc1`: the IC50 stood at 5600 nM in series [1], 4900 nM in [3], 3400 nM in series [6] and 2800 nM in series [9].

For `CC(C)c1ccccc1NS(=O)(=O)c1ccc(N2CCCC2=O)cc1`, the IC50 in [1] is 9900 nM; in series [3], 21000 nM; in series [6], 12000 nM; in series [9], 16000 nM.

As for `COc1ccccc1NS(=O)(=O)c1ccc(N2CCCC2=O)cc1`, the IC50 is 3000 nM in [1], 3200 nM in [3], 2400 nM in [6] and 1800 nM in series [9].

For `O=C1CCCN1c1ccc(S(=O)(=O)Oc2cc(Br)cc(Br)c2)cc1`, the IC50 in series [1] was 8.7 nM; in [3], 11 nM; in series [6] it was 10 nM; in [9] it was 11 nM. The Activity in [2] is reported as 9.4%; in [4], 7%; in series [11] it was 3.9%; in series [14], 79.7%. The inhibition result in series [5] was “Active”. The “Inhibition … (active/inactive)” value in series [7] is “Active”. Besides, the outcome in series [8] and in [13] was Active. The mortality at 168 h in series [10] is 18%. Moreover, the solubility entry in series [12] is “Soluble”.

As for `O=C1CCCN1c1ccc(S(=O)(=O)Oc2cccc(F)c2)cc1`, the IC50 in [1] turned out to be 300 nM; in series [3], 810 nM; in series [6], 310 nM; in [9], 370 nM.

For `COc1cccc(NS(=O)(=O)c2ccc(N3CCCC3=O)cc2)c1`, the IC50 came to 940 nM in series [1], 1300 nM in [3], 860 nM in series [6] and 1100 nM in series [9].

As for `COc1ccc(NS(=O)(=O)c2ccc(N3CCCC3=O)cc2)cc1OC`, the IC50 is 5100 nM in series [1], 2250 nM in series [3], 890 nM in [6] and 2600 nM in [9].

Consider `O=C1CCCN1c1ccc(S(=O)(=O)Oc2cccc(I)c2)cc1`, for which the IC50 came out at 88 nM in [1], 40 nM in [3], 59 nM in series [6] and 22 nM in series [9]. The Activity was determined as 7.8% in [2], 6.5% in series [4], 4.3% in series [11] and 81.4% in series [14].

Consider `O=C1CCCN1c1ccc(S(=O)(=O)Oc2ccccc2)cc1`, for which the IC50 in series [1] was found to be 460 nM; in [3] it was 920 nM; in [6], 480 nM; in series [9], 650 nM.

Regarding `COc1cccc(OS(=O)(=O)c2ccc(N3CCCC3=O)cc2)c1`, the IC50 in series [1] amounted to 120 nM; in series [3], 190 nM; in series [6] it was 120 nM; in [9], 100 nM.

Take `O=C1CCCN1c1ccc(S(=O)(=O)Oc2cccc(Br)c2)cc1`: the IC50 in [1] was 40 nM; in [3], 80 nM; in series [6] it was 60 nM; in [9], 60 nM. Besides, the Activity in series [2] is reported as 24%; in [4] it was 9.6%; in [11] it was 13.3%; in series [14], 53.1%.

`CC(C)c1ccccc1OS(=O)(=O)c1ccc(N2CCCC2=O)cc1`: the IC50 stood at 910 nM in series [1], 840 nM in series [3], 780 nM in series [6] and 500 nM in [9].

As for `O=C1CCCN1c1ccc(S(=O)(=O)Nc2ccccc2-c2ccccc2)cc1`, the IC50 in series [1] was found to be 430 nM; in series [3], 1200 nM; in [6], 730 nM; in series [9], 960 nM. Besides, the Activity amounted to 59.8% in series [2], 12.1% in series [4], 3% in series [11] and 25.1% in series [14].

On to `COc1ccccc1OS(=O)(=O)c1ccc(N2CCCC2=O)cc1`, for which the IC50 in series [1] is 1300 nM; in series [3], 1300 nM; in series [6], 1200 nM; in [9] it was 890 nM.

`O=C1CCCN1c1ccc(S(=O)(=O)Nc2ccc(-c3ccccc3)cc2)cc1`: the IC50 came out at 4700 nM in series [1], 8800 nM in series [3], 5400 nM in series [6] and 7000 nM in series [9].

As for `O=C1CCCN1c1ccc(S(=O)(=O)Nc2cccc(I)c2)cc1`, the IC50 was 330 nM in series [1], 860 nM in [3], 390 nM in [6] and 600 nM in [9]. Besides, the Activity in series [2] amounted to 11.2%; in [4], 7.8%; in [11], 6.8%; in [14] it was 74.2%. Besides, in [7], the “Inhibition … (active/inactive)” value is “Active”. The outcome in [8] and in series [13] was Active.

For `O=C1CCCN1c1ccc(S(=O)(=O)Oc2ccccc2-c2ccccc2)cc1`, the IC50 in series [1] was 190 nM; in series [3] it was 370 nM; in [6], 350 nM; in series [9] it was 210 nM.
